{"source": "paper PMC7187627", "about": "(Antimicrobial Agents and Chemotherapy, 2019)", "assay": "Plasma pharmacokinetics, multiple-ascending-dose phase 1 study", "type": "in vivo, human", "details": "for RAUC (accumulation ratio for AUC) / RCmax (accumulation ratio for Cmax): day 10 vs day 1; for Plasma t1/2 / Plasma t1/2,ss: median (minimum, maximum); for half-life / Cmax / Vd/F: human, plasma, oral; for Vd/F: read-out: Vz/F,ss", "method": "This study was conducted in full accordance with the Declaration of Helsinki and good clinical practices (GCP) at Quintiles Phase One Services in Overland Park, KS. Subjects were randomized in a 4:1 fashion (8 active:2 placebo) in each cohort to receive 200 mg, 400 mg, or 600 mg of CRS3123 or matching placebo every 12 h for 10 days (https://clinicaltrials.gov/ct2/show/NCT02106338). Subjects fasted 1 h before and 2 h after administration of the study product with a minimum of 8 oz. (240 ml) of water. Water and noncaffeinated drinks (except grapefruit juice) during the study were not restricted. Informed consent was obtained before any study-related procedures and clinical evaluations were performed. All 30 randomized subjects completed the study; 24 subjects received CRS3123 and 6 subjects received placebo. There were no premature withdrawals or discontinuations.\nAfter a screening period of up to 35 days, eligible subjects were admitted to the study center for baseline evaluations on day −1. On the morning of day 1, eligible subjects were randomized to receive either the study drug or placebo orally every 12 h through day 10. Subjects remained inpatient at the study center until discharge on day 12. During the inpatient period, subjects were monitored for safety and pharmacokinetics (PK). Subjects were followed for 2 additional outpatient visits at the study center, on days 18 ± 2 and 29 ± 2.\nPK method development, validation, and sample testing for plasma, feces, and urine were performed at KCAS, LLC (Shawnee, KS). Plasma, urine, and fecal concentrations of CRS3123 were determined by means of validated, sensitive, and specific high-performance liquid chromatography/tandem mass spectrometric (HPLC-MS/MS) assays. The lower limits of quantification of CRS3123 in plasma, feces, and urine were 10.0 ng/ml, 60.0 ng/g, and 100.0 ng/ml, respectively. The validated urine PK assay measured total free CSR3123. Since the majority of urinary CRS3123 was excreted as glucuronide conjugates ([32]), an enzymatic cleavage step using glucuronidase was added to the process to convert the glucuronide conjugates to free CRS3123 for the urine analysis.\nThe PK population consisted of all subjects who received active study drug (CRS3123) and had at least one measured CRS3123 concentration at a scheduled PK time point after the start of study drug administration.\nPharmacokinetic parameters for plasma were derived using noncompartmental methods with Phoenix WinNonlin version 6.4 (Pharsight Corporation, Certara L.P., Princeton, NJ). PK parameters for urine and feces were derived using SAS version 9.4 (SAS Institute, Inc., Cary, NC). All statistical calculations and reporting were performed using SAS version 9.4. Graphics were prepared with SAS version 9.4 or SigmaPlot 12.5 (Systat Software, Inc., San Jose, CA).\n(i) Plasma PK. Plasma concentrations of CRS3123 throughout the 12-h dosing interval on PK days (day 1 and day 10) were summarized using descriptive statistics for each treatment.\nOne-way analysis of variance (ANOVA) models were used to assess any differences in appropriate PK parameters between adjacent dose levels following a single dose (day 1) and multiple doses (day 10). An ANOVA model on the log-transformed PK parameters (AUC0–12 and Cmax on day 1; AUC0–tau and Cmax on day 10) with fixed effect for treatment was performed separately for the single-dose analysis and multiple-dose analysis. From these models, the least-squares (LS) means together with 95% confidence intervals (Cis) for each dose and the LS means with corresponding 90% CIs for all adjacent dose pairs were calculated. Transformed back from the logarithmic scale, geometric LS means with corresponding 90% CIs were provided for each dose and adjacent dose ratios following both single and multiple dosing. PK accumulation was presented using descriptive statistics, and achievement of steady state was assessed graphically. […]", "key": {"[1]": {"details": "200 mg Q12h, day 10, geometric mean"}, "[2]": {"details": "400 mg Q12h, day 10, geometric mean"}, "[3]": {"details": "600 mg Q12h, day 10, geometric mean"}}, "note": "Entries after “also recorded” stand apart in the source; their conditions may differ. Read-outs that look alike come from different tables or passages of the source."}
{"smiles": "O=c1cc(NCCCN[C@@H]2CCOc3c(Br)cc(Br)cc32)[nH]c2ccsc12", "note": "[CRS3123]", "values": [{"measurement": "CL/F,ss", "setting": "[1]", "result": 80.2, "unit": "L/h"}, {"measurement": "Plasma Cmin,ss", "setting": "[1]", "result": 85.2, "unit": "ng/mL"}, {"measurement": "CL/F,ss", "setting": "200 mg Q12h, day 10, median", "result": 82.0, "unit": "L/h"}, {"measurement": "Plasma Cmin,ss", "setting": "200 mg Q12h, day 10, median", "result": 76.2, "unit": "ng/mL"}, {"measurement": "RAUC (accumulation ratio for AUC)", "setting": "200 mg Q12h, geometric mean", "result": 1.61}, {"measurement": "RCmax (accumulation ratio for Cmax)", "setting": "200 mg Q12h, geometric mean", "result": 1.34}, {"measurement": "RAUC (accumulation ratio for AUC)", "setting": "200 mg Q12h, median", "result": 1.54}, {"measurement": "RCmax (accumulation ratio for Cmax)", "setting": "200 mg Q12h, median", "result": 1.11}, {"measurement": "Plasma t1/2", "setting": "200 mg Q12h oral, day 1", "result": "3.0 (2.7, 3.7) h"}, {"measurement": "Plasma t1/2,ss", "setting": "200 mg Q12h oral, day 10", "result": "4.6 (4.1, 7.0) h"}, {"measurement": "CL/F,ss", "setting": "[2]", "result": 125, "unit": "L/h"}, {"measurement": "Plasma Cmin,ss", "setting": "[2]", "result": 112, "unit": "ng/mL"}, {"measurement": "CL/F,ss", "setting": "400 mg Q12h, day 10, median", "result": 121, "unit": "L/h"}, {"measurement": "Plasma Cmin,ss", "setting": "400 mg Q12h, day 10, median", "result": 122, "unit": "ng/mL"}, {"measurement": "RAUC (accumulation ratio for AUC)", "setting": "400 mg Q12h, geometric mean", "result": 1.37}, {"measurement": "RCmax (accumulation ratio for Cmax)", "setting": "400 mg Q12h, geometric mean", "result": 1.22}, {"measurement": "RAUC (accumulation ratio for AUC)", "setting": "400 mg Q12h, median", "result": 1.21}, {"measurement": "RCmax (accumulation ratio for Cmax)", "setting": "400 mg Q12h, median", "result": 1.19}, {"measurement": "Plasma t1/2", "setting": "400 mg Q12h oral, day 1", "result": "3.6 (2.9, 4.3) h"}, {"measurement": "Plasma t1/2,ss", "setting": "400 mg Q12h oral, day 10", "result": "5.0 (3.4, 7.7) h"}, {"measurement": "CL/F,ss", "setting": "[3]", "result": 149, "unit": "L/h"}, {"measurement": "Plasma Cmin,ss", "setting": "[3]", "result": 160, "unit": "ng/mL"}, {"measurement": "CL/F,ss", "setting": "600 mg Q12h, day 10, median", "result": 162, "unit": "L/h"}, {"measurement": "Plasma Cmin,ss", "setting": "600 mg Q12h, day 10, median", "result": 161, "unit": "ng/mL"}, {"measurement": "RAUC (accumulation ratio for AUC)", "setting": "600 mg Q12h, geometric mean", "result": 1.13}, {"measurement": "RCmax (accumulation ratio for Cmax)", "setting": "600 mg Q12h, geometric mean", "result": 1.12}, {"measurement": "RAUC (accumulation ratio for AUC)", "setting": "600 mg Q12h, median", "result": 1.15}, {"measurement": "RCmax (accumulation ratio for Cmax)", "setting": "600 mg Q12h, median", "result": 1.05}, {"measurement": "Plasma t1/2", "setting": "600 mg Q12h oral, day 1", "result": "2.9 (2.6, 4.0) h"}, {"measurement": "systemic uptake after oral dosing", "setting": "200 to 600 mg twice daily", "result": "limited but detectable systemic uptake"}, {"measurement": "dose proportionality of plasma exposure", "setting": "200 to 600 mg, day 1 and day 10", "result": "less than dose proportional"}, {"measurement": "accumulation in plasma following multiple twice-daily dosing", "setting": "10 days twice daily, trough concentration profiles", "result": "minimal accumulation; also recorded: essentially no accumulation"}, {"measurement": "power model slope (β) estimates for AUC and Cmax", "setting": "day 1 and day 10, 200 to 600 mg", "result": "well below one"}, {"measurement": "increase of geometric mean AUC0–12 with a 3-fold increase in dose", "setting": "first dose, 200 mg to 600 mg", "result": "approximately 2.3 fold"}, {"measurement": "increase of geometric mean Cmax with a 3-fold increase in dose", "setting": "first dose, 200 mg to 600 mg", "result": "~1.9", "unit": "fold"}, {"measurement": "half-life", "setting": "200 mg, 200 mg Q12h, day 1, geometric mean, read-out: Plasma t1/2 (converted)", "result": 3.01, "unit": "h"}, {"measurement": "Cmax", "setting": "200 mg, 200 mg Q12h, day 1, median, read-out: Plasma Cmax", "result": 342, "unit": "ng/mL"}, {"measurement": "half-life", "setting": "200 mg, 200 mg Q12h, day 10, geometric mean, read-out: Plasma t1/2,ss (converted)", "result": 4.71, "unit": "h"}, {"measurement": "Vd/F", "setting": "200 mg, 200 mg Q12h, day 10, geometric mean", "result": 591, "unit": "L"}, {"measurement": "Cmax", "setting": "200 mg, 200 mg Q12h, day 10, median, read-out: Plasma Cmax,ss", "result": 492, "unit": "ng/mL"}, {"measurement": "Vd/F", "setting": "200 mg, 200 mg Q12h, day 10, median", "result": 578, "unit": "L"}, {"measurement": "half-life", "setting": "400 mg, 400 mg Q12h, day 1, geometric mean, read-out: Plasma t1/2 (converted)", "result": 3.53, "unit": "h"}, {"measurement": "Cmax", "setting": "400 mg, 400 mg Q12h, day 1, median, read-out: Plasma Cmax", "result": 504, "unit": "ng/mL"}, {"measurement": "half-life", "setting": "400 mg, 400 mg Q12h, day 10, geometric mean, read-out: Plasma t1/2,ss (converted)", "result": 5.19, "unit": "h"}]}
